# Patent US12128131B2, “Treatment of epithelial cysts by intracystic injection of antineoplastic particles” (CRITITECH, INC., priority 2017, dated 2024)
# Experiment: Solubility in the Receptor Fluid (60/40 methanol/water, pH 4)
# Assay type: physicochemical
# Conditions: 60 vol. %/40 vol % methanol/water at pH 4 with 0.01 wt % NaN3
# Procedure: Receptor Fluid: The receptor fluid consisted of 60 vol. %/40 vol % methanol/water at pH 4 with 0.01 wt % NaN3 (added as a preservative). […] After mixing and degassing the Receptor Fluid it was filtered through a ZapCap CR 0.2 μm membrane under vacuum; the Receptor Fluid, so filtered, was stirred for an additional 20 minutes under vacuum.
compound,measurement,value
"CC(=O)O[C@@]12CO[C@@H]1C[C@H](O)[C@@]1(C)C(=O)[C@H](O)C3=C(C)[C@@H](OC(=O)[C@H](O)[C@@H](NC(=O)OC(C)(C)C)c4ccccc4)C[C@@](O)([C@@H](OC(=O)c4ccccc4)[C@H]21)C3(C)C [Docetaxel Raw Material, docetaxel]",solubility in the Receptor Fluid,sufficient to maintain sink conditions
